From US20240270809A1, “ORAL GLP RECEPTOR AGONISTS” (priority 2020, published 2024)
Positions of bridges follow the written chain, without caps; N, C: chain ends. Non-standard residues stand in square brackets, D forms with d. Residues, ends and D or L forms follow the SMILES beside them. *: point of attachment. Malonyl(2,2-Me2,histaminyl) = CC(C)(C(=O)NCCc1cnc[nH]1)C(=O)*; Ala(1H-tetrazol-5-yl) = N[C@@H](Cc1nnn[nH]1)C(=O)O; αMePhe(2-F) = C[C@](N)(Cc1ccccc1F)C(=O)O; αMeL = CC(C)C[C@](C)(N)C(=O)O; Nle = CCCC[C@H](N)C(=O)O; Aib = CC(C)(N)C(=O)O

Legend:
human GLP2 receptor = molecular target: T1, human GLP2 receptor (Homo sapiens, UniProt O95838); assay: cAMP accumulation assay, functional agonism of human GLP2 receptor; assay type: cell-based; details: HEK cells infected with human GLP2 receptor BacMam virus, HTRF cAMP; for Emax: HEK293, read-out: Human GLP-2R agonist cAMP Emax; for EC50: read-out: Human GLP-2R agonist cAMP pEC50 (converted)
T1 construct: expressed in transfected cells; host or cells: HEK cells, BacMam virus transduction
T1 sequence (O95838 1-553): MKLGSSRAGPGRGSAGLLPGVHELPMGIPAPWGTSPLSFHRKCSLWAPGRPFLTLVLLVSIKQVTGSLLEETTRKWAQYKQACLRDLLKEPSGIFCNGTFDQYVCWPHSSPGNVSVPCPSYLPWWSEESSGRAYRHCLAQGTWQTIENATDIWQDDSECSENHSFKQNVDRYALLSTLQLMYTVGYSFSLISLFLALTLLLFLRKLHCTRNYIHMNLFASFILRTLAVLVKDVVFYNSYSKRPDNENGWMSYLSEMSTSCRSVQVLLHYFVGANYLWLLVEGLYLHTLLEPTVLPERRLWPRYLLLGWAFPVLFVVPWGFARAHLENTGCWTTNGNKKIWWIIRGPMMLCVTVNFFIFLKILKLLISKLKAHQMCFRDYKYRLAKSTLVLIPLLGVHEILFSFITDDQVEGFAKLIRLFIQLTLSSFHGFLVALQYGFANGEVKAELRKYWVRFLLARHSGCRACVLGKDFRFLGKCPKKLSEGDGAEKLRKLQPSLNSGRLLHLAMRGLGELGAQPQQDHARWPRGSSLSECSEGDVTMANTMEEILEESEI
Procedure: (§1) CAMP production upon agonist stimulation of human GLP2 or GLP1 receptor was assessed utilizing HiRange cAMP kit (Cisbio). In brief, HEK cells were infected with either human GLP2 or GLP1 receptor BacMam virus for 24 hours and frozen for later use in the assay. […] Cells were prepared in the assay buffer (HBSS (Lonza) supplemented with 0.5 mM IBMX (Tocris)). After 45 min incubation at 37° C., the reaction was stopped by addition of the HTRF detection reagents in the lysis buffer provided in the kit.

human GLP1 receptor = molecular target: T2, human GLP1 receptor (Homo sapiens, UniProt P43220); assay: cAMP accumulation assay, functional agonism of human GLP1 receptor; assay type: cell-based; details: HEK cells infected with human GLP1 receptor BacMam virus, HTRF cAMP; for Emax: HEK293, read-out: Human GLP-1R agonist cAMP Emax; for EC50: read-out: Human GLP-1R agonist cAMP pEC50 (converted)
T2 construct: expressed in transfected cells; host or cells: HEK cells, BacMam virus transduction
Procedure: as §1

T2 sequence (P43220 24-463): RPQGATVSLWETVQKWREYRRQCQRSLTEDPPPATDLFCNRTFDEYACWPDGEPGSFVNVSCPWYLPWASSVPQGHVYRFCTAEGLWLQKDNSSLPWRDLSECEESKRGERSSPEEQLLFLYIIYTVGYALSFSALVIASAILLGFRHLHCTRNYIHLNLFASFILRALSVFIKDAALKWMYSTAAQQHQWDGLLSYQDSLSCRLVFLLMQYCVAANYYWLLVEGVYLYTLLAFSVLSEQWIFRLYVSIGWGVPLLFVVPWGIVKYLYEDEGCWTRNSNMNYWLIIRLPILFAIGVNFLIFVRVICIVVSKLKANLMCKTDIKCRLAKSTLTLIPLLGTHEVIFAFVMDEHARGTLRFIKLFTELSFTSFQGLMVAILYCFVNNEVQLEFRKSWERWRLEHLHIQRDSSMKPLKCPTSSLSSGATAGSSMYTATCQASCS

Compound	Emax (human GLP2 receptor) [%]	EC50 (human GLP2 receptor) [nM]	Emax (human GLP1 receptor) [%]	EC50 (human GLP1 receptor) [nM]
CCCC[C@H](NC(=O)[C@H](CCC(=O)O)NC(=O)[C@@H]1CC(=O)NCCCC[C@H](NC(=O)[C@H](Cc2nn[nH]n2)NC(=O)C(C)(C)C(=O)NCCc2c[nH]cn2)C(=O)N[C@@H](CO)C(=O)N[C@@H](Cc2ccccc2)C(=O)N[C@@H](CO)C(=O)N1)C(=O)N[C@H](Cc1ccccc1)C(=O)N[C@H]1CCCCNC(=O)C[C@@H](C(=O)N[C@@H](CCCCN)C(=O)N[C@@H](C)C(=O)N[C@@H](C)C(=O)NC(C)(C)C(=O)N[C@@H](CC(=O)O)C(=O)N[C@@H](Cc2ccccc2)C(=O)N[C@H](C(=O)N[C@H]2CCC(=O)NCCCC[C@@H](C(=O)N[C@H]3CCC(=O)NCCCC[C@@H](C(N)=O)NC(=O)[C@H]([C@@H](C)O)NC(=O)[C@H]([C@@H](C)CC)NC(=O)[C@H](CCCCN)NC3=O)NC(=O)[C@H]([C@@H](C)CC)NC(=O)[C@H](CC(C)C)NC(=O)[C@H](Cc3c[nH]c4ccccc34)NC2=O)[C@@H](C)CC)NC(=O)[C@H](CC(=O)O)NC(=O)[C@H](CC(C)C)NC(=O)[C@H]([C@@H](C)CC)NC1=O [Example 42] ({Malonyl(2,2-Me2,histaminyl)}-[Ala(1H-tetrazol-5-yl)]KSFSDE[Nle][dF]KILDDKAA[Aib]DFIEWLIKEKITK-NH2; lactam 2-6, 10-14, 22-26, 27-31; C-terminus assumed)	96.4	0.398	94.1	0.2
CCCC[C@H](NC(=O)[C@H](CCC(=O)O)NC(=O)[C@@H]1CC(=O)NCCCC[C@H](NC(=O)[C@H](CC(=O)O)NC(=O)C(C)(C)NC(=O)[C@@H](N)Cc2c[nH]cn2)C(=O)N[C@@H](CO)C(=O)N[C@@H](Cc2ccccc2)C(=O)N[C@@H](CO)C(=O)N1)C(=O)N[C@H](Cc1ccccc1)C(=O)N[C@H]1CCCCNC(=O)C[C@@H](C(=O)N[C@@H](CCCCN)C(=O)N[C@@H](C)C(=O)N[C@@H](C)C(=O)NC(C)(C)C(=O)N[C@@H](CC(=O)O)C(=O)N[C@@H](Cc2ccccc2)C(=O)N[C@H](C(=O)N[C@H]2CCC(=O)NCCCC[C@@H](C(=O)N[C@H]3CCC(=O)NCCCC[C@@H](C(N)=O)NC(=O)[C@H]([C@@H](C)O)NC(=O)[C@H]([C@@H](C)CC)NC(=O)[C@H](CCCCN)NC3=O)NC(=O)[C@H]([C@@H](C)CC)NC(=O)[C@H](CC(C)C)NC(=O)[C@H](Cc3c[nH]c4ccccc34)NC2=O)[C@@H](C)CC)NC(=O)[C@H](CC(=O)O)NC(=O)[C@H](CC(C)C)NC(=O)[C@H]([C@@H](C)CC)NC1=O [Example 47] (H-H[Aib]DKSFSDE[Nle][dF]KILDDKAA[Aib]DFIEWLIKEKITK-NH2; lactam 4-8, 12-16, 24-28, 29-33; N-terminus and C-terminus assumed)	104	0.158	93.6	0.316
CCCC[C@@H]1NC(=O)[C@H](CCC(=O)O)NC(=O)[C@@H](NC(=O)[C@H](CO)NC(=O)[C@](C)(Cc2ccccc2F)NC(=O)[C@H](CO)NC(=O)[C@@H](C)NC(=O)[C@H](CCC(N)=O)NC(=O)C(C)(C)C(=O)NCCc2c[nH]cn2)CCCCNC(=O)C[C@@H](C(=O)N[C@H](C(=O)N[C@@H](CC(C)C)C(=O)N[C@@H](CC(=O)O)C(=O)N[C@H]2CCC(=O)NCCCC[C@@H](C(=O)N[C@@H](CC(=O)O)C(=O)N[C@@H](Cc3ccccc3)C(=O)N[C@H](C(=O)N[C@H]3CCCCNC(=O)C[C@@H](C(=O)N[C@H]4CCC(=O)NCCCC[C@@H](C(N)=O)NC(=O)[C@H]([C@@H](C)O)NC(=O)[C@H]([C@@H](C)CC)NC(=O)[C@H](CCCCN)NC4=O)NC(=O)[C@H]([C@@H](C)CC)NC(=O)[C@H](CC(C)C)NC(=O)[C@H](Cc4c[nH]c5ccccc45)NC3=O)[C@@H](C)CC)NC(=O)[C@H](C)NC(=O)[C@H](C)NC(=O)[C@H](CCCCN)NC2=O)[C@@H](C)CC)NC(=O)[C@@H](Cc2ccccc2)NC1=O [Example 54] ({Malonyl(2,2-Me2,histaminyl)}-Q[dA]S[αMePhe(2-F)]SKE[Nle][dF]DILDEKAAKDFIKWLIDEKITK-NH2; lactam 6-10, 14-18, 22-26, 27-31 (inferred); C-terminus assumed)	101	0.0316	88.8	0.631

The next lines start with the values.

Emax (human GLP2 receptor) [%]	EC50 (human GLP2 receptor) [nM]	Emax (human GLP1 receptor) [%]	EC50 (human GLP1 receptor) [nM]	Compound
91.3	0.794	97.8	0.0251	CCCC[C@H](NC(=O)[C@H](CCC(=O)O)NC(=O)[C@@H]1CC(=O)NCCCC[C@H](NC(=O)[C@H](CCC(=O)O)NC(=O)C(C)(C)NC(=O)[C@@H](N)Cc2c[nH]cn2)C(=O)N[C@@H](CO)C(=O)N[C@@](C)(Cc2ccccc2F)C(=O)N[C@@H](CO)C(=O)N1)C(=O)N[C@H](Cc1ccccc1)C(=O)N[C@H](C(=O)N[C@@](C)(CC(C)C)C(=O)N[C@@H](CC(C)C)C(=O)N[C@@H](CC(=O)O)C(=O)N[C@H]1CCC(=O)NCCCC[C@@H](C(=O)N[C@@H](CC(=O)O)C(=O)N[C@@H](Cc2ccccc2)C(=O)N[C@H](C(=O)N[C@H]2CCC(=O)NCCCC[C@@H](C(=O)N[C@H](C(=O)N[C@@H](CCCCN)C(N)=O)[C@@H](C)O)NC(=O)[C@H]([C@@H](C)CC)NC(=O)[C@H](CC(C)C)NC(=O)[C@H](Cc3c[nH]c4ccccc34)NC2=O)[C@@H](C)CC)NC(=O)[C@H](C)NC(=O)[C@H](C)NC(=O)[C@H](CCCCN)NC1=O)[C@@H](C)O [Example 32] (H-H[Aib]EKS[αMePhe(2-F)]SDE[Nle][dF]T[αMeL]LDEKAAKDFIEWLIKTK-NH2; lactam 4-8, 16-20, 24-28 (inferred); C-terminus assumed)
102	0.0316	98.1	0.0251	CCCC[C@H](NC(=O)[C@H](CCC(=O)O)NC(=O)[C@@H]1CC(=O)NCCCC[C@H](NC(=O)[C@H](CC(=O)O)NC(=O)C(C)(C)C(=O)NCCc2c[nH]cn2)C(=O)N[C@@H](CO)C(=O)N[C@@](C)(Cc2ccccc2F)C(=O)N[C@@H](CO)C(=O)N1)C(=O)N[C@H](Cc1ccccc1)C(=O)N[C@H](C(=O)N[C@@](C)(CC(C)C)C(=O)N[C@@H](CC(C)C)C(=O)N[C@@H](CC(=O)O)C(=O)N[C@H]1CCC(=O)NCCCC[C@@H](C(=O)N[C@@H](CC(=O)O)C(=O)N[C@@H](Cc2ccccc2)C(=O)N[C@H](C(=O)N[C@H]2CCC(=O)NCCCC[C@@H](C(=O)N[C@H](C(=O)N[C@@H](CCCCN)C(N)=O)[C@@H](C)O)NC(=O)[C@H]([C@@H](C)CC)NC(=O)[C@H](CC(C)C)NC(=O)[C@H](Cc3c[nH]c4ccccc34)NC2=O)[C@@H](C)CC)NC(=O)[C@H](C)NC(=O)[C@H](C)NC(=O)[C@H](CCCCN)NC1=O)[C@@H](C)O [Example 33] ({Malonyl(2,2-Me2,histaminyl)}-DKS[αMePhe(2-F)]SDE[Nle][dF]T[αMeL]LDEKAAKDFIEWLIKTK-NH2; lactam 2-6, 14-18, 22-26; C-terminus assumed)
104	0.631	96.1	0.2	CCCC[C@H](NC(=O)[C@H](CCC(=O)O)NC(=O)[C@@H]1CC(=O)NCCCC[C@H](NC(=O)[C@H](Cc2nn[nH]n2)NC(=O)C(C)(C)C(=O)NCCc2c[nH]cn2)C(=O)N[C@@H](CO)C(=O)N[C@@H](Cc2ccccc2)C(=O)N[C@@H](CO)C(=O)N1)C(=O)N[C@H](Cc1ccccc1)C(=O)N[C@H](C(=O)N[C@@](C)(CC(C)C)C(=O)N[C@@H](CC(C)C)C(=O)N[C@@H](CC(=O)O)C(=O)N[C@H]1CCC(=O)NCCCC[C@@H](C(=O)N[C@@H](CC(=O)O)C(=O)N[C@@H](Cc2ccccc2)C(=O)N[C@H](C(=O)N[C@H]2CCC(=O)NCCCC[C@@H](C(=O)N[C@H](C(=O)N[C@H]3CCC(=O)NCCCC[C@@H](C(N)=O)NC(=O)[C@H]([C@@H](C)O)NC(=O)[C@H]([C@@H](C)CC)NC3=O)[C@@H](C)O)NC(=O)[C@H]([C@@H](C)CC)NC(=O)[C@H](CC(C)C)NC(=O)[C@H](Cc3c[nH]c4ccccc34)NC2=O)[C@@H](C)CC)NC(=O)[C@H](C)NC(=O)[C@H](C)NC(=O)[C@H](CCCCN)NC1=O)[C@@H](C)O [Example 44] ({Malonyl(2,2-Me2,histaminyl)}-[Ala(1H-tetrazol-5-yl)]KSFSDE[Nle][dF]T[αMeL]LDEKAAKDFIEWLIKTEITK-NH2; lactam 2-6, 14-18, 22-26, 28-31; C-terminus assumed)
